According to US10675331B2, “Method for achieving desired glial growth factor 2 plasma levels” (priority 2008, dated 2020):
Entries after “also recorded” stand apart in the source; their conditions may differ.

Legend:
[1] = Phase I studies; cited from earlier work
[2] = system: advanced colorectal, NSCLC, breast, and pancreatic cancer; settings: 67 patients; cited from earlier work
MAP kinase-kinase = settings: many assays; read-out: IC50 values for PD 98059-induced effects; cited from earlier work
melanoma = settings: cited from earlier work
[3] = in vivo; cited from earlier work
[4] = system: Schwann cell-DRG neuron co-cultures; experiment: Myelination in Schwann cell-DRG neuron co-cultures, MBP immunostaining; assay type: cell-based, rat
Description: Schwalm cells were prepared from sciatic nerves of newborn rats (1-2 day old) as described previously (Brookes et al., Brain Res. 1979; 165:105-118). For routine culture, Schwann cells were grown in. Dulbecco's modified Eagle's medium (DMEM) with 10% fetal bovine serum (FBS) supplemented with EGF-domain neuregulin-1 (R&D Systems) (10 ng/ml) and Forskolin (2 μM). Cells between passage 2-4 were used in all experiments described in the text.
Dissociated DRG were prepared from embryonic day 14.5 rat embryos as described previously (Eldridge et al., J Cell Biol. 1987; 105(2):1023-34) and plated onto collagen (type-1 rat tail collagen,)-coated 12 mm glass coverslips at a density of 1.25 DRG/coverslip. Five to six hours later, the cultures were flooded with neurobasal medium (Cellgro,) supplemented with B27 (GIBCO), 20% glucose, NGF (50 ng/ml) and 5-fluorodeoxyuridine (FUdR, 10 μM) and maintained in the medium for additional 2-3 days in order to remove proliferating non-neuronal cells. Cultures were then switched to fresh medium without FUdR and maintained until the DRG axons reached the periphery of the coverslips. After the axonal networks were established, Schwann cells were plated onto the neurons at a density of 100,000 cells/coverslip. […] Ten to eleven days later, myelination was assessed by immunostaining for MBP. […]

MAPK = MAPK (Erk) activation in Schwann cell-DRG co-cultures, Western blot; assay type: cell-based, rat
Description: (§1) Monoclonal antibody to phosphorylated Akt and polyclonal antibody to phosphorylated MAPK were purchased from Cell Signaling and were used at dilutions of 1:1000 and 1:500, respectively. Polyclonal antibodies to Akt and MAPK (Promega) were used at dilutions of 1:1000 and 1:5000, respectively.
To prepare cell lysates, 90-95% confluent rat Schwann cells on 60 mm plates or co-cultures were washed twice in phosphate-buffered saline (PBS) and then lysed in 300 μl ice-cold lysis buffer (50 mM Tris HCl pH 7.4, 1% NP-40, 0.25% Sodium Deoxycholate, 150 mM NaCl, 1 mM EGTA, 10 μg/ml Leupeptin, 2 μg/ml Aprotinin, 1 mM PMSF and 0.5 mM sodium orthovanadate). Lysates were cleared by centrifugation for 15 min at 14,000 rpm in the cold and the protein concentration of the supernatants was determined according to manufacturer specifications (Bio-Rad: Hercules, Calif.). For Western blot analysis, 50-70 μg of Schwann cell lysates were size-fractionated on 10% SDS-polyacrylamide gels and transferred onto PVDF membranes. After blocking in 5% milk, the membranes were incubated with appropriate primary antibodies prepared in blocking solution. After incubating with horseradish peroxidase conjugated secondary antibodies, the protein bands were visualized by enhanced chemiluminescence. For immunoprecipitation, 500 μg of Schwann cell lysates were incubated with 0.6 μg of primary antibody for 3 hours at 4° C., then incubated with 50 μl Sepharose A beads for 1 hour. […]
(§2) To assess the possibility that the inhibitory effect of GGF2 on myelination could be due to its ability to induce a robust MAPK activation in Schwann cells, the present inventors used a well-established in vitro myelinating culture system in which Schwann cells are co-cultured with dorsal root ganglion (DRG) neurons and induced to myelinate the associated axons by addition of ascorbic acid to the culture media. […] Twenty minutes later, cell lysates were prepared and MAPK activation was determined by Western blot analysis. […]

Akt = Akt (PI3-kinase pathway) activation in Schwann cell-DRG co-cultures, Western blot; assay type: cell-based, rat; settings: U0126 with GGF2
Description: as §1
(§3) To prepare cell lysates, 90-95% confluent rat Schwann cells on 60 mm plates or co-cultures were washed twice in phosphate-buffered saline (PBS) and then lysed in 300 μl ice-cold lysis buffer (50 mM Tris HCl pH 7.4, 1% NP-40, 0.25% Sodium Deoxycholate, 150 mM NaCl, 1 mM EGTA, 10 μg/ml Leupeptin, 2 μg/ml Aprotinin, 1 mM PMSF and 0.5 mM sodium orthovanadate). Lysates were cleared by centrifugation for 15 min at 14,000 rpm in the cold and the protein concentration of the supernatants was determined according to manufacturer specifications (Bio-Rad: Hercules, Calif.). […]
as §2

c-Jun = c-Jun expression in co-culture lysates, Western blot; assay type: cell-based, rat; settings: GGF+U0126, 11 days
From the text: Control cultures were maintained without any treatment (NT). Scale bar: 100 μm. […] Error bars indicate±SE (p<0.001). […] Actin level served as a loading control.

Krox20 = settings: U0126 treatment, 11 days
Description: Schwann cell-DRG co-cultures were pre-treated with U0126 for 30 minutes then GGF (0.6 nM) was added in the continuous presence of U0126. After 45 minutes the cell lysates were prepared and level of p-Erk and p-Akt were determined. […] Control cultures were maintained without any treatment (NT). […] Co-cultures were treated with increasing concentration of U0126 (0.5, 1 and 3 nM) under myelinating condition and 11 days later, myelination was analyzed as above. […] Co-cultures were maintained under myelinating condition in the presence of GGF or GGF+U0126 (0.5, 1 and 3 nM) for 11 days and the cell lysates were analyzed for MBP, c-Jun and Krox 20 expression. Actin level served as a loading control.
as §3

P0 = settings: U0126 treated cultures
MEK-1 and MEK-2 = settings: cited from earlier work
metastatic breast cancer = settings: less in the intermittent dosing group than the continuous; cited from earlier work
advanced kidney cancer = settings: cited from earlier work
[5] = patients who received sorafenib

Which side effects [1] does the source give for O=C(NOCC1CC1)c1ccc(F)c(F)c1Nc1ccc(I)cc1Cl [CI-1040] here?
The side effects was “mild gastrointestinal and skin side effects”.

And the responses [2]?
Its responses is “no responses”.

And the tolerability [2]?
The tolerability was “well tolerated”.

For COc1cccc(-c2cc(=O)c3ccccc3o2)c1N [PD 98059], which IC50 (MAP kinase-kinase) is on record?
Its IC50 is 1 to 20 µM.

What does the source list for O=C(NOC[C@H](O)CO)c1ccc(F)c(F)c1Nc1ccc(I)cc1F [PD 0325901]?
response in melanoma patients (melanoma; human, in vivo): some partial response; dose at which ocular and neurological toxicity presented (melanoma; oral): ≥ 10 mg twice-a-day

With N#C/C(=C(/N)Sc1ccc(N)cc1)c1ccccc1C(F)(F)F [SL 327] as the compound, how does the brain penetration [3] read?
The brain penetration was “brain penetrant”.

Which level of myelination ([4]; U0126 in the absence of GGF2, FIG. 3E) does the source give for N#CC(=C(/N)Sc1ccccc1N)/C(C#N)=C(\N)Sc1ccccc1N [U0126] here?
Its level of myelination is “increase in the level of myelination”.

And the “myelination in GGF2-treated co-cultures” value ([4]; co-treated with GGF2 and U0126, ten to eleven days)?
The value was “dose-dependent increase in myelination; also recorded: the inhibitory effect of GGF2 was reversed”.

And the “level of GGF2-induced MAPK activation” value (MAPK; U0126 1 μM, 30 minutes pretreatment, GGF2 0.6 nM)?
Its value is “reduced to the basal level”.

What about the “MAPK activation in the co-culture” value (MAPK; U0126 10 μM, 30 minutes pretreatment, GGF2 0.6 nM) of the same compound?
The value was “completely abolished”.

What about the “GGF2-induced Erk activation” value (MAPK; increasing concentrations of U0126, FIG. 3B) of the same compound?
The value was “inhibited GGF2-induced Erk activation in a dosage-dependent manner”.

What about the “effect on GGF2-induced PI3-kinase / Akt activation” value (Akt) of the same compound?
Its value is “no effect”.

And the “GGF-induced c-Jun expression” value (c-Jun)?
The value was “down-regulating”.

What about the Krox20 expression (Krox20) of the same compound?
The Krox20 expression was “increase in Krox20 expression”.

What about the P0 expression (P0) of the same compound?
The P0 expression was “increase in P0 expression”.

What about the “higher potency than PD 98059” value (MEK-1 and MEK-2) of the same compound?
The value was 100 fold.

With Cn1cncc1[C@@](N)(c1ccc(Cl)cc1)c1ccc2c(c1)c(-c1cccc(Cl)c1)cc(=O)n2C [Zarnestra, tipifarnib] as the compound, how does the “major side effects observed” value (metastatic breast cancer) read?
Its value is “bone marrow suppression and neuropathy”.

For CNC(=O)c1cc(Oc2ccc(NC(=O)Nc3ccc(Cl)c(C(F)(F)F)c3)cc2)ccn1 [sorafenib, Sorafenib], which “most common side effects” value (advanced kidney cancer; 768 patients) is on record?
The value was “hypertension, fatigue, diarrhea, and rash”.

What about the tolerability (advanced kidney cancer; 768 patients) of the same compound?
Its tolerability is “very well tolerated”.

What about the “progression-free survival (PFS), median” value (advanced kidney cancer; 769 analyzed patients) of the same compound?
Its value is 24 weeks.

What about the 12-week progression-free rate (advanced kidney cancer; in vivo) of the same compound?
The 12-week progression-free rate was 79%.

What about the disease control (advanced kidney cancer; [5]) of the same compound?
The disease control was 80%.

What about the partial response (advanced kidney cancer; [5]) of the same compound?
Its partial response is 2%.

What about the stable disease (advanced kidney cancer; [5]) of the same compound?
The stable disease was 78%.
